Test [1] has as its system H929 cell line. The test is described as follows: Cell killing by trypan blue staining, cells seeded at 10^6 per ml. The note with it: H929, agent added D-0 (LMB38 100 ng/ml), washed after D-3. The format is cell-based. As for the experimental part:
(§1) The BCMA-positive H929, U266, and RPMI cell lines were seeded at 10^6 per ml in 3 ml volume. LMB38 (BM24-Fab-LRggs) was added at 100 ng/ml at Day 0 (D-0). Cells (10 μl) were taken on different days and counted after trypan blue staining. After D-3, cells were washed and plated with media containing no toxin. For the 6 hour group, cells were washed after 6 h and plated in regular media containing no toxin. Cyclohexamide (Chxm) and 205 were used as positive controls; SS1-Fab-immunotoxin targeting mesothelin was used as a negative control (Ctrl).

Test [2] has as its system RPMI cell line. Described as above. In kind it is cell-based. The note with it: agent added D-0 (LMB38 100 ng/ml). As for the experimental part:
as §1

Test [3] relates to U266 cell line. The test is described as above. In kind it is cell-based. Conditions: U266, agent added D-0 (LMB38 100 ng/ml), washed after D-3. As for the experimental part: as §1
For test [4], the target named is T1, BCMA-rFc protein (Homo sapiens, UniProt Q02223).
T1 construct: the extracellular domain of human BCMA (residues 1-54) fused to the Fc region; made in house
T1 sequence (Q02223 1-54): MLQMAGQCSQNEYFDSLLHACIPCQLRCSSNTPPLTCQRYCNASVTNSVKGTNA
The test can be described thus: Binding kinetics of MAbs by bio-layer interferometry (BLITZ). Conditions: for ka / kd: BCMA-rFc immobilized sensor. How it is done: The binding kinetics of MAbs to BCMA were measured by bio-layer interferometry using a BLITZ (ForteBio, Menlo Park, Calif.) instrument. According to the manufacturer's instructions, BCMA-rFc were immobilized on amine-reactive second-generation biosensors by amine coupling following the activation of the sensor surface with N-hydroxysuccinimide (NHS) and N-ethyl-N-(3-dimethylaminopropyl) carbodiimide hydrochloride (EDC). Serial dilutions of MAbs were run across sensor surface at five different concentration in PBS (pH 7.4). The sensorgram data set was globally fit using the built-in BLITZ software to determine association rate constant (Ka), dissociation rate constant (Kd), and affinity constant (KD).
The binding kinetics of these two anti-BCMA mAbs against BCMA-rFc protein were measured by bio-layer interferometry. Serial dilutions of anti-BCMA MAbs (20, 10, 5, 2.5, 1.25 μg/ml) were applied to the BCMA-rFc immobilized sensor and detected. Real-time biomolecular interaction analyses were performed with BLITZ software. […] The dissociation constants (KD) of both mAbs were less than 1×10^−12 (exceeded the detection limits).

The subject of test [5] is TNFRs (BCMA, TACI or BAFFR). The test is described as follows: Cross-reactivity with TNFR superfamily members by FACS (transfected 293T cells) and ELISA (TNFR-rFc). In kind it is binding, human. Conditions: mAb at 4 μg/ml. As for the experimental part: For transfection experiments, 293T cells were seeded in 100 mm dishes (BD Biosciences, Bedford, Mass.) and grown at the subconfluent densities. pcDNA6/BCMA, pcDNA/TACI, or pcDNA6/BAFFR (6 μs) were transfected per dish by LIPOFECTAMINE LX and PLUS reagent according to the manufacturer's instructions. After 24 h, the transiently transfected cells were harvested and used for FACS screening. Cells (1-5×10^5) were incubated with serial dilution of hybridoma supernatants in FACS buffer (PBS containing 5% FBS and 0.1% sodium azide) for 1 h on ice. After washing twice with FACS buffer, the cells were incubated with 1:200 dilution of R-Phycoerythrin (PE)-labelled goat anti-mouse IgG F(ab′)2 (Jackson Immuno Research Laboratories, West Grove, Pa.) for 30 min. After washing twice, the cells were resuspended in 180 μl FACS buffer containing 10 nM TO-PRO-3 stain (Invitrogen), and the fluorescence associated with the live cells was measured using a BD ACCURI C6 flow cytometer (BD Biosciences). Positive hybridoma clones were transferred to 24-well pates. To exclude the false positive in the first screening, 24-well culture supernatants were re-assayed 2 days after transfer. […] The isotype of established monoclonal antibodies (MAb) was determined by a mouse MAb isotyping reagents (Sigma-Aldrich). Immunoglobulin concentrations in the culture supernatants were determined by a sandwich ELISA. […]

Test [6] has as its target T2, BCMA-expressing 293T cells (Homo sapiens, UniProt Q02223).
T2 construct: One vector encoded the full-length human BCMA; expressed in transfected cells; host or cells: 293T cells transiently transfected with pcDNA6/BCMA
T2 sequence (Q02223 1-184): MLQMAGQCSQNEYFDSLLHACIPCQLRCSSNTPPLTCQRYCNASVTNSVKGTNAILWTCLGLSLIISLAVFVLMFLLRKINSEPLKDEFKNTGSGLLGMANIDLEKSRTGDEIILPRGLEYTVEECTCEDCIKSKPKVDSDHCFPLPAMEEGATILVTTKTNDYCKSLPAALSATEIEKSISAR
The test can be described thus: FACS screening of binding to cell-surface BCMA. How it is done: For transfection experiments, 293T cells were seeded in 100 mm dishes (BD Biosciences, Bedford, Mass.) and grown at the subconfluent densities. pcDNA6/BCMA, pcDNA/TACI, or pcDNA6/BAFFR (6 μs) were transfected per dish by LIPOFECTAMINE LX and PLUS reagent according to the manufacturer's instructions. After 24 h, the transiently transfected cells were harvested and used for FACS screening. Cells (1-5×10^5) were incubated with serial dilution of hybridoma supernatants in FACS buffer (PBS containing 5% FBS and 0.1% sodium azide) for 1 h on ice. […] After washing twice, the cells were resuspended in 180 μl FACS buffer containing 10 nM TO-PRO-3 stain (Invitrogen), and the fluorescence associated with the live cells was measured using a BD ACCURI C6 flow cytometer (BD Biosciences). […] The isotype of established monoclonal antibodies (MAb) was determined by a mouse MAb isotyping reagents (Sigma-Aldrich). Immunoglobulin concentrations in the culture supernatants were determined by a sandwich ELISA.
Mice were intraperitoneally immunized with BCMA-rFc fusion protein in adjuvant for the first immunization, and subsequently immunized 5 times with BCMA-rFc without adjuvant. High antibody titers (1:10,000) against the BCMA-expressing 293T cells were detected in the sera from mice immunized with BCMA-rFc. […]

For test [7], the system named is H929 cells. The test is described as follows: WST-8 assay of AF647-labeled and unlabeled LMB70. The format is cell-based. The note with it: for IC50 (WST-8): in ng/mL. As for the experimental part: (§2) LMB70 was labeled with AF647 for measurement of uptake in vivo. LMB70 was labeled twice with AF647 using an AF647 labeling kit (Life Technologies). Labeling efficacy and activity were measured by WST-8 assay and affinity measurement.

Test [8] concerns the target T3, BCMA (Homo sapiens, UniProt Q02223).
T3 sequence (Q02223 1-184): T2 sequence (Q02223 1-184)
The test can be described thus: Affinity measurement of AF647-labeled and unlabeled LMB70. The format is binding. Conditions: after the first labeling. As for the experimental part: as §2

Test [9] deals with T4, BCMA molecules on the surface of H929 cells (Homo sapiens, UniProt Q02223).
T4 construct: endogenous in cells; host or cells: H929 cells
T4 sequence (Q02223 1-184): T2 sequence (Q02223 1-184)
The test can be described thus: Quantification of BCMA molecules on cell surface by flow cytometry with labeled LMB70. The format is binding. The note with it: 1h on ice. How it is done:
To quantify the BCMA molecules on the surface of H929 cells, H929 cells were incubated with various concentrations of labeled LMB70 for 1h on ice in FLOW buffer. The cells were washed and analyzed by flow cytometry, together with AF647 quantification beads.

In the case of `C[C@@H]1C[C@@H]([C@H](O)CC2CC(=O)NC(=O)C2)C(=O)[C@@H](C)C1` [Chxm, Cyclohexamide], the Percent dead in test [1] (D-0) is listed as 9%; in test [1] (D-1), 70%; in test [1] (D-2), 92%; in [1] (D-3), 100%; in test [1] (D-6), 100%; in [2] (washed after D-3, D-0), 15%. The Percent dead came out at 75% in test [2] (washed after D-3, D-1); 100% in [2] (washed after D-3, D-2); 100% in [2] (washed after D-3, D-3); 100% in [2] (washed after D-3, D-6); 7% in [3] (D-0); 25% in [3] (D-1). For the same molecule, the Percent dead in test [3] (D-2) is reported as 50%; in test [3] (D-3), 80%; in test [3] (D-6), 100%.

B1: BM24: anti-BCMA mAb, IgG1 isotype; VH SEQ ID NO: 13, VL SEQ ID NO: 14 (antibody, V domains shown)
VH: MEVQLQQSGPELVKPGASVKMSCKASGNTLTNYVIHWMKQMPGQGLDWIGYILPYNDLTKYNEKFTGKATLTSDKSSSSAYMELNSLTSEDSAVYYCTRWDWDGFFDPWGQGTTLTVSSAS
VL: MDIVMTQSPLSLPVSLGDQASISCRSTQSLVHSNGNTHLHWYLQRPGQSPKLLIYSVSNRFSEVPDRFSASGSGTDFTLKISRVEAEDLGVYFCSQTSHIPYTFGGGTKLEIKR
modifications: IgG1
In the case of B1, in test [4], the “ka” value is 297000 M⁻¹ s⁻¹ and the “kd” value is less than 1e-07 s⁻¹. For the same molecule, the “cross-reactivity with other TNFR superfamily members” value in [5] is given as “specific to BCMA”. Moreover, the “binding to BCMA antigen on the cell surface” value in test [6] is “high affinity and specificity”.

B2: BM306: anti-BCMA mAb, IgG1 isotype; VH SEQ ID NO: 15, VL SEQ ID NO: 16 (antibody, V domains shown)
VH: MEVQLQQSGPELVKPGASVKISCKTSGYTFTEYTINWVKQSHGKSLEWIGDIYPDNYNIRYNQKFKGKATLTVDKSSSTAYMELRSLSSEDSAIYYCANHDFFVFWGQGTLVTVSAAK
VL: MDIQMTQATSSLSASLGDRVTINCRTSQDISNHLNWYQQKPDGTVKLLIYYTSRLQSGVPSRFSGSGSGTDYSLTISNLEQEDIGTYFCHQGNTLPPTFGGGTKLEIKR
modifications: IgG1
For B2, in [4], the “association rate constant (Ka) compared to BM24” value was “high”, the “ka” value was 415000 M⁻¹ s⁻¹ and the “kd” value is less than 1e-07 s⁻¹. Besides, in [5], the “cross-reactivity with other TNFR superfamily members” value is “specific to BCMA”. Moreover, the “binding to BCMA antigen on the cell surface” value in test [6] is “high affinity and specificity”.

B3: labeled LMB70: LMB70 labeled with AF647 using an AF647 labeling kit (conjugate)
VH: EVQLQQSGPELVKPGASVKISCKTSGYTFTEYTINWVKQSHGKSLEWIGDIYPDNYNIRYNQKFKGKATLTVDKSSSTAYMELRSLSSEDSAIYYCANHDFFVFWGQGTLVTVSA
VL: DIQMTQATSSLSASLGDRVTINCRTSQDISNHLNWYQQKPDGTVKLLIYYTSRLQSGVPSRFSGSGSGTDYSLTISNLEQEDIGTYFCHQGNTLPPTFGGGTKLEIK
modifications: left off: another chain or arm of the molecule; a dimerising Fc or GST; small tags and cut ends
notes: LMB70 labeled with AF647 using an AF647 labeling kit
For B3, the “IC50 (WST-8)” value in test [7] (after the first labeling) is 6.082; in test [7] (after the second labeling) it was 10.69. Also, the “fold less active than the unlabeled toxins” value in test [7] (labeled versus unlabeled) is listed as “about 4 fold”. Also, the “Bmax (affinity measurement)” value in test [8] was 1131. The Bmax in test [9] (first labeling) is given as 150,000 molecules per cell; in test [9] (second labeling), 230,000 molecules per cell.

Values taken from patent US10925969B2, “Anti-BCMA polypeptides and proteins” (priority 2015, dated 2021).
